In brackets after ≈: the same amount, converted by molar mass.
What was measured:
[1] = tested on: Enterococcus faecium CIP 5855; assay: Percentage of bactericidal active principle, second method (5 min contact), E. faecium; assay type: cell-based; settings: destruction of 99.99%
Text: (§1) In the two methods, a bacterial inoculum is brought into contact with different dilutions of the product for a determined period of time.
(§2) When the contact period has ended, an aliquot of the mixture of bacterial suspension and product is taken and brought into contact with an agent for neutralizing the bacterial activity of the mixture, either in a solid medium or in a liquid medium. The bactericidal activity of the product, expressed either as a concentration or as a percentage of active principle, corresponds to an absence of bacterial growth.
(§3) The second method makes it possible to define a percentage of bactericidal or fungicidal active principle by means of a simplified and automated adaptation of Afnor standards NF T 72-150 and NF T 72-170. In this method, the bactericidal activity of the product is determined with and without interfering substances. It is based on assessing the destruction of 99.99% of the initial bacteria by the product in 5 minutes. The interfering substances are of the protein type and are chosen for the actual conditions of application of this type of product. The contact time between product and bacterial suspension is 5 minutes, the neutralization step is 10 minutes and subculture is effected in a liquid medium.
(§4) The chosen bacterial strains are:
(§5) The strains are maintained on Tryptic Soy Agar® (TSA) marketed by Difco.
(§6) The strains are harvested in a manner identical to the first method; these suspensions contain between 1.10^8 and 3.10^8 cells per milliliter. Appropriate dilutions make it possible to have a suspension containing 2 to 6.10^3 cells per milliliter.
(§7) The experiment is performed in microtiter plates; it comprises two steps. The first step, called the preliminary test, checks that the product is indeed neutralized. In the test proper, the different dilutions of the product are brought into contact with 2 to 6.10^3 cells per milliliter of the bacterial suspension in the second row of the microtiter plate. After a contact time of 5 minutes, an aliquot is transferred to the third row containing the neutralizer adapted to the product and to the strain. After a contact time of 10 minutes, aliquots are transferred to the last 5 rows containing Tryptic Soy Broth® (TSB) from Difco.
(§8) The interfering substances tested are a mixture of albumin and yeast extract. In the first row of the microplate, these proteins are brought into contact for 5 minutes with the different dilutions of the product. After this step, the same principle as above is applied: 5 minutes of contact with the germ, 10 minutes of contact with the neutralizer, transfer to TSB.

[2] = tested on: Escherichia coli CIP 54127; assay: Minimum bactericidal concentration, first method (30 min contact), E. coli; assay type: cell-based; settings: CIP54127, 0.5 h, contact time 30 minutes
Text: as §1, §2
(§9) The first method makes it possible to define a minimum bactericidal concentration (MBC) or minimum fungicidal concentration (MFC), expressed in μg/ml. The contact time between product and bacterial suspension is 30 minutes. The neutralizer is included in agar.
(§10) The CIP bacterial strains chosen for the study, which are available from the Institut Pasteur, are:
(§11) 3. Escherichia coli CIP 54127
as §5
(§12) After 24 hours of culture at 37° C., the microbial growth is harvested with the aid of glass beads and 10 ml of diluent containing 1 g of tryptone and 8.5 g of sodium chloride in 1000 ml of distilled water. The suspension formed is shaken and the percentage transmission of light at 620 nm is measured in a spectrophotometer:
(§13) The bacterial inoculum corresponds to a 1:20 dilution of this bacterial suspension.
(§14) Plates containing cupules receive different dilutions of the test product. These dilutions of the test product are brought into contact with the different bacterial suspensions using a multiple site inoculator. After a contact time of 30 minutes, aliquots are transferred with this inoculator to the surface of an agar medium (TSA) placed in Petri dishes containing an activity neutralizer, namely 20 g of lubrol W, 2.5 g of Tween 80, 2.5 g of sodium thiosulfate and 1% of egg yolk in 1000 ml of TSA (Difco). A control for the efficacy of the neutralizer is prepared for each test product by depositing an aliquot of the dilution of the test product on the surface of the culture medium. After drying, the corresponding inoculum is deposited in the same place. An inoculum control is prepared on agar medium with and without neutralizer. The results are read off after 48 hours of incubation at 37° C.
(§15) They indicate the minimum bactericidal concentrations (MBC) for strains 1, 2, 3 and 4 and the minimum fungicidal concentrations (MFC) for strain 5.

[3] = tested on: Staphylococcus aureus CIP 53154; assay: Minimum bactericidal concentration, first method (30 min contact), S. aureus; assay type: cell-based; settings: CIP53154, 0.5 h, contact time 30 minutes
Text: as §1, §2, §9, §10
(§16) 1. Staphylococcus aureus
as §5, §12, §13, §14, §15

[4] = tested on: Enterococcus faecium CIP 5855; assay: Minimum bactericidal concentration, first method (30 min contact), E. faecium; assay type: cell-based; settings: CIP5855, 0.5 h, contact time 30 minutes
Text: as §1, §2, §9, §10, §5, §12, §13, §14, §15

[5] = tested on: Candida albicans CIP 1180; assay: Minimum fungicidal concentration, first method (30 min contact), C. albicans; assay type: cell-based; settings: CIP1180, 0.5 h, contact time 30 minutes
Text: as §1, §2, §9, §14
The antifungal activity of the products according to the invention was also determined using the method described above. A representative strain of yeast was selected for the study: Candida albicans CIP 1180 (strain 5).
This is maintained on Sabouraud's Dextrose Agar marketed by Difco. The technique is identical to that described for studying the antibacterial activity. After 48 hours of culture at 37° C., the microbial growth is harvested with the aid of glass beads and 5 ml of diluent containing 1 g of tryptone and 8.5 g of sodium chloride in 1000 ml of distilled water; a further 5 ml of the diluent are then added. This suspension gives a percentage transmission of light at 620 nm of 2 to 3% in a spectrophotometer.
The inoculum corresponds to a 1:10 dilution of this microbial suspension. A 1:100 dilution of this suspension, observed between slide and cover glass through a No. 40 microscope objective, must show 10 cells per field, which corresponds to 1,000,000 yeasts per ml.
as §15

[6] = tested on: Candida albicans CIP 1180; assay: Percentage of fungicidal active principle, second method (5 min contact), C. albicans; assay type: cell-based
Text: as §1, §2, §3, §7, §8
The antifungal activity of the products according to the invention was also determined with and without interfering substances using the method described above. The same strain was used as for the first technique, namely Candida albicans CIP 1180. It is harvested in an identical manner to that described in the first method.

[7] = tested on: Pseudomonas aeruginosa CIP A22; assay: Minimum bactericidal concentration, first method (30 min contact), P. aeruginosa; assay type: cell-based; settings: CIPA22, 0.5 h, contact time 30 minutes
Text: as §1, §2, §9, §10
4. Psuedomonas aeruginosa
as §5, §12, §13, §14, §15

[8] = tested on: Escherichia coli CIP 54127; assay: Percentage of bactericidal active principle, second method (5 min contact), E. coli; assay type: cell-based; settings: destruction of 99.99%
Text: as §1, §2, §3, §4, §11, §5, §6, §7, §8

[9] = tested on: Staphylococcus aureus CIP 53154; assay: Percentage of bactericidal active principle, second method (5 min contact), S. aureus; assay type: cell-based; settings: destruction of 99.99%
Text: as §1, §2, §3, §4, §16, §5, §6, §7, §8

[10] = tested on: Pseudomonas aeruginosa CIP A22; assay: Percentage of bactericidal active principle, second method (5 min contact), P. aeruginosa; assay type: cell-based; settings: destruction of 99.99%
Text: as §1, §2, §3, §4
4. Pseudomonas aeruginosa
as §5, §6, §7, §8

[11] = tested on: Mycobacterium smegmatis CIP 7326; assay: Percentage of bactericidal active principle, second method (5 min contact), M. smegmatis; assay type: cell-based; settings: destruction of 99.99%
Text: as §1, §2, §3, §4
5. Mycobacterium smegmatis
as §5, §6, §7, §8

[12] = tested on: S. aureus, E. faecium, E. coli, P. aeruginosa, C. albicans; assay: First method, bactericidal and fungicidal activity over all strains (Table II); assay type: cell-based; settings: contact time 30 minutes
Text: as §1, §2, §9
Plates containing cupules receive different dilutions of the test product. These dilutions of the test product are brought into contact with the different bacterial suspensions using a multiple site inoculator. […] The results are read off after 48 hours of incubation at 37° C.
The antifungal activity of the products according to the invention was also determined using the method described above. […]

Product solubility = settings: in TEG (tetraethylene glycol)
[13] = Simple: without interfering substances
[14] = with proteins as interfering substances
[15] = Simple: without interfering substances, * activity limited to the zone indicated

SMILES: CCCCCCCCCCCC(=O)NCCN1CCC(Cc2ccccc2)CC1.Cl [SR 44944 A, N-[2-(4-Benzylpiperidino)ethyl]lauramide hydrochloride]
- Bactericidal activity, results in percentage of active principle, E. faecium [1, 13]: < 0.01 percentage of active principle
- Bactericidal activity, results in percentage of active principle, E. faecium [1, 14]: 0.03 percentage of active principle
- MBC [2]: 10 mg/L
- MBC [3]: 10 mg/L
- MBC [4]: 10 mg/L
- MFC [5]: 10 mg/L
- Fungicidal activity, results in percentage of active principle, C. albicans [6, 13]: 0.01 percentage of active principle
- Fungicidal activity, results in percentage of active principle, C. albicans [6, 14]: 0.06 percentage of active principle
- MBC [7]: 50 mg/L
- Bactericidal activity, results in percentage of active principle, E. coli [8, 13]: 0.01 percentage of active principle
- Bactericidal activity, results in percentage of active principle, E. coli [8, 14]: < 0.01 percentage of active principle
- Bactericidal activity, results in percentage of active principle, S. aureus [9, 15]: < 0.01 percentage of active principle
- Bactericidal activity, results in percentage of active principle, S. aureus [9, 14]: 0.1 percentage of active principle
- Bactericidal activity, results in percentage of active principle, P. aeruginosa [10, 13]: < 0.01 percentage of active principle
- Bactericidal activity, results in percentage of active principle, P. aeruginosa [10, 14]: 0.25 percentage of active principle
- Bactericidal activity, results in percentage of active principle, M. smegmatis [11, 15]: > 0.5 percentage of active principle
- Bactericidal activity, results in percentage of active principle, M. smegmatis [11, 14]: 0.06 percentage of active principle

SMILES: CCCCCCCCCCCC(=O)NCCCN1CCC(Cc2ccccc2)CC1 [SR 45320 A]
- Bactericidal activity, results in percentage of active principle, E. faecium [1, 13]: < 0.001 percentage of active principle
- Bactericidal activity, results in percentage of active principle, E. faecium [1, 14]: 0.1 percentage of active principle
- MBC [2]: 10 mg/L (≈ 24.1 µM)
- MBC [3]: 10 mg/L (≈ 24.1 µM)
- Ranking of MBC and MFC among the products [12]: lowest MBC and MFC
- MBC [4]: 10 mg/L (≈ 24.1 µM)
- MFC [5]: 10 mg/L (≈ 24.1 µM)
- Product solubility (Product solubility): 1%
- Fungicidal activity, results in percentage of active principle, C. albicans [6, 13]: 0.005 percentage of active principle
- Fungicidal activity, results in percentage of active principle, C. albicans [6, 14]: 0.05 percentage of active principle
- MBC [7]: 10 mg/L (≈ 24.1 µM)
- Bactericidal activity, results in percentage of active principle, E. coli [8, 13]: 0.01 percentage of active principle
- Bactericidal activity, results in percentage of active principle, E. coli [8, 14]: 0.05 percentage of active principle
- Bactericidal activity, results in percentage of active principle, S. aureus [9, 15]: 0.005 percentage of active principle
- Bactericidal activity, results in percentage of active principle, S. aureus [9, 14]: 0.05 percentage of active principle
- Bactericidal activity, results in percentage of active principle, P. aeruginosa [10, 13]: 0.005 percentage of active principle
- Bactericidal activity, results in percentage of active principle, P. aeruginosa [10, 14]: > 0.5 percentage of active principle
- Bactericidal activity, results in percentage of active principle, M. smegmatis [11, 14]: 0.05 percentage of active principle

From US5068064A, “N-substituted lauramides, their preparation and compositions in which they are present” (Sanofi, priority 1989, dated 1991)
